From US10004716B2, “Therapeutic/ preventive agent containing coumarin derivative as active ingredient” (NIPPON ZOKI PHARMACEUTICAL CO., LTD., priority 2014, dated 2018) come the findings set out here.

One assay relates to NF-κB. The experiment in a line: Suppressive action to NF-κB activation (luciferase reporter, HEK293T cells, TNF-α). It is filed as cell-based, human. As to conditions: HEK293T cells with NF-κB reporter; test substance 25 μml/mL 1 hour, then TNF-α 10 ng/mL 5 hours; stimulated TNF-α = 100. As for the experimental part: A preparation solution containing pGL4.32 [luc2P/NF-κB-RE/Hygrol] (Promega) which is an NF-κB reporter vector, pGL4.74 [hRluc/TK] (Promega) which is a control vector and Lipofectamine LTX (Life Technologies) which is a gene transfer agent was added to human embryo kidney cells (HEK293T cells) sown onto a […] whereupon there were prepared the cells which transiently express a reporter protein.
After 24 hours from the gene transfer, transient expression cells were peeled off by treating with trypsin, sown on a poly-lysine coated white 96-well plate and incubated for one night. The test substance was added to as to make its final concentration 25 μml/mL and, after pre-incubating for 1 hour, TNF-α was added thereto so as to make its final concentration 10 ng/mL followed by incubating for 5 hours more. The cells were dissolved and the activities of a firefly luciferase and a renilla luciferase were measured. Rate of the luminescent intensity by addition of each drug to the luminescent intensity by stimulation with TNF-α were calculated.

Assay [1] concerns endothelin gene expression. The assay is described as follows: Evaluation I: TGF-β-induced gene expression of fibrosis-related factors in NHLF cells: endothelin. It is filed as cell-based, human. The following applies: 25 μmol/L test substance 2 hours, then TGF-β 5 ng/mL 24 hours, n = 3. On the procedure: (§1) NHLF cells were sown so as to make their amount 4×10^4 cells/well to each well of a 12-well plate and incubated to an extent of 80% confluent in a medium where fibroblast growth medium 2 supplement mix (FGM-2 SingleQuots, Lonza) was added to a fibroblast basal medium (FBM, Lonza). After that, incubation was conducted for 2 hours in a Dulbecco modified Eagle medium (DMEM) containing 25 μmol/L of a test substance and, after addition of […] growth factor (TGF)-β thereto so as to make its final concentration 5 ng/mL, incubation was carried out for 24 hours more.
(§2) QIAzol Lysis Reagent (QIAGEN) (1 mL) was added to the above to suspend, 200 μL of chloroform was added thereto followed by mixing and centrifugation (at 4° C. and 1500 rpm) was then conducted whereby the supernatant liquid was recovered. Total RNA was extracted and purified by treating the supernatant liquid with QIACube (QIAGEN) and RNeasy Micro Kit (QIAGEN). cDNA was prepared from the total RNA using Omniscript RT kit (QIAGEN) and Oligo(dT)12-18 Primer (Invitrogen).
(§3) Gene expression level of the fibrosis-related factors [connective tissue growth factor (CTGF), α-smooth muscle actin (SMA), fibronectin, endothelin and type I collagen (Col 1)] was measured by a conventional real time PCR method using a fluorescent dye SYBR GREEN I (Roche Diagnostics) by Light Cycler LC 480 (the same) using cDNA synthesized from the total RNA extracted in the above (2). A calibration curve was prepared by diluting the PCR product quantified by PicoGreen dsDNA Quantitation kit (Molecular probes) (a DNA quantitation kit) to an extent of 10^2˜10^7 copies/μL. From each of the resulting quantified values, copy numbers per 10000 copies of GAPDH gene being an internal standard were calculated.

The test system of assay [2] is type I collagen (Col 1) gene expression. The experiment in a line: Evaluation I: TGF-β-induced gene expression of fibrosis-related factors in NHLF cells: Col 1. Type of assay: cell-based, human. As to conditions: 25 μmol/L test substance 2 hours, then TGF-β 5 ng/mL 24 hours, n = 3. On the procedure:
as §1, §2, §3

Assay [3] relates to rats suffering from degenerative intervertebral disk induced by nicotine. The experiment in a line: 50% reaction threshold value to mechanical stimulation (von Frey test) in rats with degenerative intervertebral disk induced by nicotine. Type of assay: in vivo. The following applies: SD male rats, after 41 days from exposure to nicotine, 1 hour after administration; per os once daily; n = 8; normal control 15.0, diseased control 4.6. As for the experimental part: After 16 days from the purchase, SD male rats were organized into normal control group and nicotine group in terms of body weight, 50% reaction threshold value (measuring method will be mentioned later) and duration of walking time and, after 17 days from the purchase, exposure to nicotine was started for a nicotine group. Nicotine was prepared into 344.8 mg/mL using a physiological saline solution, filled into an osmotic pressure pump and retained under the skin of waist of rats. After 21 days from the retaining, an osmotic pressure pump into which a freshly-prepared nicotine solution was filled was retained under the skin of rats of five groups except the normal control group. Nicotine was prepared into […] using a physiological saline solution, filled into an osmotic pressure pump and retained under the skin of waist of the SD male rats.
After 13 days from exposure to nicotine, measurement of 50% reaction threshold value, duration of walking time and body weight were measured and a group organization was done into 6 groups of normal control group, diseased control group, compound 57-administered group, compound 58-administered group, compound 60-administered group and compound 68-administered group.
A test substance was suspended using 0.5 w/v % CMC and, together with stirring, 10 mL/kg of the suspension was repeatedly administered per os once daily after 14 to 52 or 53 days from the initiation of exposure to nicotine using an oral sonde for rats. To the normal control group and the diseased control group, 0.5 w/v % CMC was repeatedly administered per os in the same administration schedule and administration method.
A 50% reaction threshold value to mechanical stimulation was measured before the exposure to nicotine and after 41 days from the exposure to nicotine. The six groups of the rats mentioned in the above (2) were placed in a transparent acrylic gauge where the bottom is a metal wire, acclimated for about 3 minutes and a 50% reaction threshold value to mechanical stimulation was measured after 1 hour from the administration of a testing drug.
The measurement was conducted using a von Frey filament (manufactured by North Coast Medical Inc.) in accordance with a method of Chaplan, et al. (Journal of Neuroscience Methods, vol. 53, no. 1, pages 55 to 63, 1994) and a method of Dixon, et al. ([…] of Pharmacology and Toxicology, vol. 20, pages 441 to 462, 1980). […] A 50% reaction threshold value to mechanical stimulation was measured using the reaction for the stimulation for six times in total and a mean value in each of the groups was calculated. […]

For `O=c1oc2c(OS(=O)(=O)c3cccc(C(F)(F)F)c3)cccc2cc1NS(=O)(=O)c1ccc(C(F)(F)F)cc1` [Compound 68, 2-Oxo-3-[[4-(trifluoromethyl)phenyl]sulfonylamino]-chromen-8-yl 3-(trifluoromethyl)benzenesulfonate], the “Luminescent Intensity to Stimulated TNF-α (%)” value (shortened to “Luminescent Intensity … (%)”) in the assay with NF-κB stood at 16.1%. The “Copy Numbers per 10000 Copies of GAPDH Endothelin” value in assay [1] is recorded as 6.4 copies per 10000 copies of GAP. Further, the “Copy Numbers per 10000 Copies of GAPDH Col 1” value in assay [2] is 8905.8 copies per 10000 copies of GAP. Moreover, the “Threshold Value for Pain” value in assay [3] is on record as 7.6 g.

In the case of `O=c1oc2c(OS(=O)(=O)c3ccc(C(F)(F)F)cc3)cccc2cc1NS(=O)(=O)c1cccc(Br)c1` [Compound 58, 3-[(3-Bromophenyl)sulfonylamino]-2-oxochromen-8-yl 4-(trifluoromethyl)benzenesulfonate], the “Luminescent Intensity … (%)” value in the assay on NF-κB came out at 14.5%. Moreover, the “Copy Numbers per 10000 Copies of GAPDH Endothelin” value in assay [1] is recorded as 7.6 copies per 10000 copies of GAP. Besides, the “Copy Numbers per 10000 Copies of GAPDH Col 1” value in assay [2] is 5901.0 copies per 10000 copies of GAP. For the same molecule, the “Threshold Value for Pain” value in assay [3] is on record as 6.7 g.

For the molecule `O=c1oc2c(OS(=O)(=O)c3ccc(C(F)(F)F)cc3)cccc2cc1NS(=O)(=O)c1cccc(C(F)(F)F)c1` [Compound 57, 2-Oxo-3-[[3-(trifluoromethyl)phenyl]sulfonylamino]-chromen-8-yl 4-(trifluoromethyl)benzenesulfonate], in the assay with NF-κB, the “Luminescent Intensity … (%)” value is given as 7.5%. Moreover, the “Copy Numbers per 10000 Copies of GAPDH Endothelin” value in assay [1] is 8.2 copies per 10000 copies of GAP. Also, the “Copy Numbers per 10000 Copies of GAPDH Col 1” value in assay [2] was 9715.8 copies per 10000 copies of GAP. For the same molecule, the “Threshold Value for Pain” value in assay [3] came out at 7.5 g.

Turning to `O=c1oc2c(OS(=O)(=O)c3cccc(Br)c3)cccc2cc1NS(=O)(=O)c1cccc(C(F)(F)F)c1` [Compound 60, 2-Oxo-3-[[3-(trifluoromethyl)phenyl]sulfonylamino]-chromen-8-yl 3-bromobenzenesulfonate], in the assay on NF-κB, the “Luminescent Intensity … (%)” value was 15.7%. Moreover, the “Copy Numbers per 10000 Copies of GAPDH Endothelin” value in assay [1] is given as 16.9 copies per 10000 copies of GAP. The “Copy Numbers per 10000 Copies of GAPDH Col 1” value in assay [2] was 11388.1 copies per 10000 copies of GAP. Moreover, the “Threshold Value for Pain” value in assay [3] came out at 9.6 g.
